Reference: US10570077B2, “Substituted (4'-hydroxyphenyl)cyclohexane compounds and uses thereof as selective agonists of the estrogen receptor beta isoform” (Marquette University, priority 2013, dated 2020)
Several values for one entry are separate records, joined by “and”; a condition that tells them apart may be missing. Identical values can stand only once. Like-named read-outs stand apart in the source and are kept apart here. Blank lines part the entries; values can stand above or below the molecule they belong to.

How the values were obtained:
[1] = target: T1, ERα (Homo sapiens (Human), UniProt P03372); test: Fluorescence polarization displacement assay (FITC-estradiol tracer); assay type: binding; conditions: for affinity for ERα (qualitative): at concentrations as high as 1 μM; for IC50: read-out: IC50 (ERα affinity, fluorescence polarization displacement assay)
Method: ([Tr]) was 10 nM. Sample volume was 150 μL. For each experiment the polarization was calibrated with a sample of FITC set at 20 mP. All proper blanks were used, including water for the FITC samples and blank samples containing only 30 nM ERα protein for the remaining data points.

[2] = target: T2, ERβ (Homo sapiens (Human), UniProt Q92731); test: Cell-based ERβ luminescence (luciferase reporter) agonist assay
Source text: (§1) ERα and ERβ assay kits for cell-based assays (Indigo Biosciences) allowed for investigation into the functional activity (i.e. agonist and/or antagonist) of the ligands identified to bind based on the initial fluorescence polarization displacement assay. Briefly, the cells contained a luciferase reporter gene that was functionally linked to either the ERα or ERβ-responsive promoter. By quantifying the luciferase expression via luminescence, the change in ER activity could be quantified. […] For the agonist assay, the cells were prepared by warming to 37° C., plated, then the chemicals added. […] The cells were then plated, and the chemicals added. All plates were incubated in a cell culture incubator at 37° C. and 5% CO2 for 22 h. Each assay was performed in duplicate. Luminescence was characterized after removal of the incubating media and introduction of the Detection Substrate using a Molecular Devices SpectraMax M5 microplate reader. Data was fitted using GraphPad Prism and fit to the dose-response (four parameter) equation as follows.

[3] = target: T2, ERβ; test: Cell-based ERβ luminescence antagonist assay (+E2)
Source text: as §1

[4] = target: T1, ERα; test: Cell-based ERα luminescence (luciferase reporter) agonist assay
Source text: as §1

[5] = target: T1, ERα; test: Cell-based ERα luminescence antagonist assay (+E2)
Method: ERα and ERβ assay kits for cell-based assays (Indigo Biosciences) allowed for investigation into the functional activity (i.e. agonist and/or antagonist) of the ligands identified to bind based on the initial fluorescence polarization displacement assay. Briefly, the cells contained a luciferase reporter gene that was functionally linked to either the ERα or ERβ-responsive promoter. By quantifying the luciferase expression via luminescence, the change in ER activity could be quantified. 1-2 mM stocks of the ligands were prepared in d6-DMSO and diluted to final concentrations ranging from 3.2 nM to 2 μM, using the Compound Screening Medium provided in the kit. For the agonist assay, the cells were prepared by warming to 37° C., plated, then the chemicals added. […] The cells were then plated, and the chemicals added. All plates were incubated in a cell culture incubator at 37° C. and 5% CO2 for 22 h. Each assay was performed in duplicate. Luminescence was characterized after removal of the incubating media and introduction of the Detection Substrate using a Molecular Devices SpectraMax M5 microplate reader. Data was fitted using GraphPad Prism and fit to the dose-response (four parameter) equation as follows.

[6] = target: T2, ERβ; test: TR-FRET ERβ binding assay; conditions: TR-FRET tracer displacement
Method: The binding activity of substituted (4′-hydroxyphenyl)cycloalkane compounds was tested using a TR-FRET ERβ binding assay as illustrated in FIG. 12. […] When the tracer used in the assay is bound, then the ratio is high. When the tracer is displaced, the ratio is low. The following compounds were tested.

[7] = fluorescence polarization displacement
[8] = 160 pM E2 added, read-out: ERβ antagonist IC50
[9] = normalized, read-out: ERα Normalized Agonist
[10] = normalized, read-out: ERβ Agonist normalized

T1 sequence (P03372 whole entry): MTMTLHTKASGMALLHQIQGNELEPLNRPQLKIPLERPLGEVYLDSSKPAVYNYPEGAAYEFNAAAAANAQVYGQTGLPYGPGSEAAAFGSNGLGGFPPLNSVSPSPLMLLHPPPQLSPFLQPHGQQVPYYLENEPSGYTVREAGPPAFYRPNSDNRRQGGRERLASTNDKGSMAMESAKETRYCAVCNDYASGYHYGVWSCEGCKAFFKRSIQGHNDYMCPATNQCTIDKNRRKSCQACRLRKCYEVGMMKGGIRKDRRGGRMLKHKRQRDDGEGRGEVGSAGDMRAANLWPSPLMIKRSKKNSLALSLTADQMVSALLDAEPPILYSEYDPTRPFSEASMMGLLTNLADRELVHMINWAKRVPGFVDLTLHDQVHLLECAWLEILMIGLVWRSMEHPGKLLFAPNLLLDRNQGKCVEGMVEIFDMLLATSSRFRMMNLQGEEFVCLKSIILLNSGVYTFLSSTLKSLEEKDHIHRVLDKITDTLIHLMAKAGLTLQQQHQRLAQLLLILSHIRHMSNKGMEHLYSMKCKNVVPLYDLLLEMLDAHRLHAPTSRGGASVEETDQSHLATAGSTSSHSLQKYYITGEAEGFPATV
T2 sequence (Q92731 whole entry): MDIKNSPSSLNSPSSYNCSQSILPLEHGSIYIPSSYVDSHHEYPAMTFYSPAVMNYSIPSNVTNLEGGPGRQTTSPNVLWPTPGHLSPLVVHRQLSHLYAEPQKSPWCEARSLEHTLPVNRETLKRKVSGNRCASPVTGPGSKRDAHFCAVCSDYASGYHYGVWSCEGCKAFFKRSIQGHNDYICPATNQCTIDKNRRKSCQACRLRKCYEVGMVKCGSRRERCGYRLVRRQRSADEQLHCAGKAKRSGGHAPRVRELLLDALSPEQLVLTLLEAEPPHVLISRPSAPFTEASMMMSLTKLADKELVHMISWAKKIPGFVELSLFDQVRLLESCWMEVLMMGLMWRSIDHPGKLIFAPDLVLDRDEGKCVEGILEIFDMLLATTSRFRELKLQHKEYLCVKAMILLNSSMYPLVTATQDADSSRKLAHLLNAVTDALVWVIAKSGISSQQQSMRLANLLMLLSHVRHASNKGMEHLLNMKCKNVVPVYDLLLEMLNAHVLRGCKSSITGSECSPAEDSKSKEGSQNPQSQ

- Kd ([1]; accurate Kd could not be obtained, estimated): > 1000 nM
- IC50 [2]: 5.4 ± 0.3 nM
- IC50 ([3]; read-out: ERβ antagonist IC50): 137 ± 100 nM
SMILES: OC[C@H]1CCC[C@@H](c2ccc(O)cc2)CC1 (racemic) [Compound 18, cis-1-Hydroxymethyl-4-(4′-hydroxyphenyl)-cycloheptane]

- affinity for ERα (qualitative) [1]: significant affinity
- ERβ antagonist activity (qualitative) [3]: ERβ antagonist activity
SMILES: OC[C@H]1CCC[C@@H](c2ccc(O)cc2)CC1 (relative stereo) [Compound 18, cis-1-Hydroxymethyl-4-(4′-hydroxyphenyl)-cycloheptane]

SMILES: C[C@]12CC[C@@H]3c4ccc(O)cc4CC[C@H]3[C@@H]1CC=C2CO [Compound 2, 3-Hydroxvestra-1,3,5(10),16-tetraene-17-methanol]
- ERα agonist activity (qualitative) [4]: agonist activity
- IC50 [2]: 6.8 ± 0.2 nM
- ERβ antagonist activity (qualitative) [3]: not ERβ antagonists

SMILES: CCCOC(=O)C1CC[C@H]2[C@@H]3CCc4cc(O)ccc4[C@H]3CC[C@]12C (some centres unmarked) [Compound 4, n-Propyl 3-hydroxyestra-1,3,5(10)-triene-17-carboxylate]
- Kd [1, 7]: 320 ± 40 nM
- IC50 [1]: 160 to 320 nM
- IC50 [4]: 92 ± 1 nM
- IC50 [2]: 9.8 ± 2 nM

SMILES: CC[C@H](C)C1=CC[C@H]2[C@@H]3CCc4cc(O)ccc4[C@H]3CC[C@]12C [Compound 7, (20S) 3-Hydroxy-19,24-dinorchola-1,3,5(10),16-tetraene]
- affinity for ERα (qualitative) [1]: significant affinity
- Kd [1, 7]: 160 ± 10 nM
- IC50 [1]: 160 to 320 nM
- IC50 [2]: 88 ± 9 nM
- ERβ antagonist activity (qualitative) [3]: ERβ antagonist activity
- IC50 [3, 8]: 70 ± 15 nM

SMILES: C[C@@H](CCO)C1=CC[C@H]2[C@@H]3CCc4cc(O)ccc4[C@H]3CC[C@]12C [Compound 11, (20S) 3-Hydroxy-19,24-Dinorchola-1,3,5(10),16-tetraen-23-ol]
- affinity for ERα (qualitative) [1]: significant affinity
- Kd [1, 7]: 320 ± 40 nM
- IC50 [2]: 108 ± 67 nM
- ERβ antagonist activity (qualitative) [3]: ERβ antagonist activity
- IC50 [3, 8]: 275 ± 40 nM

SMILES: CC1C[C@H](C)C2(CC[C@H]3[C@@H]4CCc5cc(O)ccc5[C@H]4CC[C@@]32C)O1 (some centres unmarked) [Compound 13, 17,23-Epoxy-3-hydroxy-19-norchola-1,3,5(10)-triene]
- affinity for ERα (qualitative) [1]: significant affinity
- Kd [1, 7]: 160 ± 10 nM
- ERα agonist activity (qualitative) [4]: agonist activity
- IC50 [4]: 484 ± 1 nM
- IC50 [2]: 111 ± 26 nM
- ERβ antagonist activity (qualitative) [3]: not ERβ antagonists

- EC50 [4, 9]: 10500 ± 200 nM
- EC50 ([4]; read-out: ERα Agonist): > 10000 nM
- EC50 ([2]; read-out: ERβ Agonist): 30 nM and 33 nM
- IC50 [3]: > 100000 nM
- IC50 [5]: > 10000 nM
- IC50 [6]: 23.5 ± 8 nM
SMILES: OCC1CCC[C@@H](c2ccc(O)cc2)CC1 (some centres unmarked) [ISP-163]

- EC50 [4, 9]: 350000 ± 250000 nM
- EC50 ([4]; read-out: ERα Agonist): > 10000 nM
- EC50 ([2]; read-out: ERβ Agonist): 731 ± 85 nM
- IC50 [3]: > 10000 nM
- IC50 [5]: > 10000 nM
SMILES: O/N=C1/CCCC(c2ccc(O)cc2)CC1 (centres unmarked) [ISP-166]

- EC50 [4, 9]: 700000 ± 80000 nM
- EC50 ([4]; read-out: ERα Agonist): > 10000 nM
- IC50 [5]: > 10000 nM
SMILES: OCC1CCC(c2ccc(O)cc2)CC1 (centres unmarked) [ISP-171]

- EC50 [4, 9]: 45000 ± 17000 nM
- EC50 ([4]; read-out: ERα Agonist): > 10000 nM
- EC50 [2, 10]: 104 nM
- EC50 ([2]; read-out: ERβ Agonist): 142 ± 17 nM
- IC50 [3]: > 10000 nM
- IC50 [5]: > 10000 nM
- IC50 [6]: 36.8 ± 9.2 nM
SMILES: OCCC1CCCC(c2ccc(O)cc2)CC1 (centres unmarked) [ISP-248]

- IC50 [6]: 378 ± 97 nM
SMILES: OC[C@H]1C=CCC(c2ccc(O)cc2)C=C1 (some centres unmarked) [RKP-35c]

- IC50 [6]: 521 ± 87 nM
SMILES: OCC=C1CCC(c2ccc(O)cc2)CC1 (centres unmarked) [RKP-228]

- EC50 [4, 9]: 25000 ± 1300 nM
- EC50 ([4]; read-out: ERα Agonist): > 10000 nM
- EC50 [2, 10]: 89 nM
- EC50 ([2]; read-out: ERβ Agonist): 93 ± 7 nM
- IC50 ([3]; read-out: ERβ Antagonist (+E2), +E2): > 10000 nM
- IC50 ([5]; read-out: ERα Antagonist (+E2), +E2): > 10000 nM
- IC50 [6]: 15.2 ± 1.5 nM
SMILES: CCC1CCC(c2ccc(O)cc2)CC1 (centres unmarked) [RKP-231 IF]
